The record followed here is patent US4510130A, “Promoting animal and plant growth with leupeptin” (Genetic Diagnostics Corporation, priority 1983, dated 1985).

The test system of one assay is Syrian hamsters. Kind of assay: Hamster growth (body weight) with daily leupeptin injection. Type of assay: in vivo. Particulars: for Hamster Weight: daily injection 0.8 mg leupeptin in 1 ml saline (about 20 mg/Kg per day). The procedure: 20 Syrian hamsters 3 weeks old and initially weighing an average of 40 grams each were subdivided into two groups. The groups were fed similarly. All animals received a daily injection of 1 ml of isotonic saline solution except that the saline solution administered to the test group had 0.8 mg of leupeptin dissolved therein, corresponding to about 20 mg/Kg per day based on the initial weight of the animals. The animals were weighed weekly and the results obtained were as follows: […]

The next assay relates to pea seedlings. Kind of assay: Pea seedling growth (height) with leupeptin in watering. It is filed as in vivo. Conditions: 10 mg leupeptin in 5 ml water per plant per day to the soil. The procedure:
20 pea seedlings 4 days after planting of seed and each containing an average of 5 leaves were divided into two matched groups. 5 ml of water per plant per day was supplied to the soil in which the control group was growing. The test group received the same 5 ml of water but 10 mg of leupeptin was dissolved therein. The lighting and other growth conditions were the same and the plant heights were measured daily. The first measurement was made on the day that the leupeptin-treated plants reached a height of about 1 cm, a practical minimum measuring height.

In the case of `CC(=O)N[C@@H](CC(C)C)C(=O)N[C@@H](CC(C)C)C(=O)N[C@H](C=O)CCCNC(=N)N` [Leupeptin, leupeptin], the “Hamster Weight” value with Syrian hamsters (Weeks 3) came out at 47 ± 3 grams; with Syrian hamsters (Weeks 6), 75 ± 5 grams; with Syrian hamsters (Weeks 9) it was 87 ± 6 grams; in the assay on Syrian hamsters (Weeks 12), 95 ± 9 grams; with Syrian hamsters (Weeks 15), 105 ± 8 grams; in the assay on Syrian hamsters (Weeks 18), 110 ± 8 grams. Moreover, the “Hamster Weight” value with Syrian hamsters (Weeks 21) turned out to be 115 ± 7 grams; in the assay on Syrian hamsters (Weeks 27), 122 ± 10 grams; in the assay with Syrian hamsters (Weeks 32), 130 ± 9 grams. Moreover, in the assay on Syrian hamsters (at all stages of development, about 20 mg/Kg per day by injection), the “Increase of hamster weight versus control” value is reported as 10-15%. Besides, the “Muscle mass of isolated muscles” value in the assay with Syrian hamsters (muscles isolated from the treated hamsters) is on record as “increased weight was attributable to a corresponding muscle mass increase”. Moreover, the Pea seedling height is 1 ± 0.2 cm in the assay with pea seedlings (Day 0); 1.5 ± 0.1 cm with pea seedlings (Day 1); 3.4 ± 0.2 cm in the assay with pea seedlings (Day 4); 5.2 ± 0.5 cm with pea seedlings (Day 6); 7.9 ± 0.5 cm with pea seedlings (Day 10); 9.2 ± 0.6 cm in the assay with pea seedlings (Day 12). For the same compound, the Pea seedling height in the assay on pea seedlings (Day 15) was found to be 12.1 ± 0.8 cm.
